{"source": "patent US11246965B2", "about": "“Compositions and methods for reducing neointima formation” (University of Georgia Research Foundation, Inc., priority 2013, dated 2022)", "key": {"[1]": {"tested_on": "Rat aortic smooth muscle cells (SMCs)", "assay": "SMC proliferation (MTT cell proliferation assay)", "type": "cell-based", "description": "Rat aortic smooth muscle cells (SMCs) were cultured by enzyme-digestion method from rat thoracic aorta as described previously (Hofer, et al., Proc Natl Acad Sci USA., 98:6412-6416 (2001), Marquez, et al., Biochem Pharmacol., 41:1821-1829 (1991), (Berg, et al., Eur. J. Biochem., 216:161-167 (1993)). SMC phenotype of the cultured cells was confirmed by the expression of smooth muscle alpha-actin and SM22-alpha.\n(§1) Cell proliferation was evaluated with 3-(4,5-dimethylthiazol-2-yl)-2,5-diphenyltetrazolium (MTT) assay using a TACS MTT Cell Proliferation Assay Kit (Trivegen). The optical density at 570 nm was measured."}, "Endothelial cell C166": {"tested_on": "Endothelial cell C166", "assay": "EC proliferation (MTT cell proliferation assay)", "type": "cell-based", "description": "Endothelial cell C166 was purchased from ATCC and grown at 37° C. in a humidified atmosphere of 5% CO2 in DMEM (Invitrogen) supplemented with 10% FBS.\nas §1"}, "CTP synthetase": {"tested_on": "CTP synthetase", "settings": "cited from earlier work; for CTPS activity: literature"}, "[2]": {"tested_on": "Rat aortic smooth muscle cells (SMCs)", "assay": "In vitro SMC apoptosis, PI/Annexin V flow cytometry", "type": "cell-based", "settings": "24 h treatment with 500 nM", "description": "(§2) In vivo cell apoptosis was evaluated by detecting DNA fragmentation using the terminal deoxynucleotidyl transferase (TdT)-mediated dUTP-digoxigenin nick end-labeling method (TUNEL kit, Roche, USA). Apoptotic cells were observed under a fluorescent microscope. In vitro cell apoptosis was measured by Flow Cytometry. Cells were stained with both Annexin V-FITC (BD Biosciences) and propidium iodide (PI) and analyzed on a FACSCALIBUR™ (Becton Dickinson). The percentages of positive-stained cells were quantified using […]™ software (Becton Dickinson). Non-stained cells served as controls."}, "neointima SMCs": {"tested_on": "neointima SMCs", "assay": "In vivo cell apoptosis by TUNEL assay in injured arteries", "design": "species or system rat", "settings": "2 mg/kg b.w./day", "description": "as §2\nTo confirm the specificity of CTPS1 function, CTPS1 was knockdown using adenoviral-mediated shRNA delivery in injured arteries."}, "[3]": {"tested_on": "balloon-injured rat carotid arteries", "assay": "Re-endothelialization in rat carotid artery balloon injury model (CD31, Evans blue)", "type": "in vivo", "settings": "1 mg/kg CPEC, day 14", "description": "Rat carotid artery balloon injury was performed using 2F Fogarty arterial embolectomy balloon catheter (Baxter Edwards Healthcare) as described previously (Tulis, Methods Mol. Med., 139:1-30 (2007)). 7, 14 or 60 days later, the balloon-injured arteries were perfused with saline, fixed with 4% paraformaldehyde, embedded in paraffin, and sectioned. Subsequent morphometric analyses were performed in a double-blinded manner. Ten sections that were evenly distributed in the vessel segments were collected for analysis. The sections were stained with modified hematoxylin and eosin or elastica van Gieson (VG) staining. Cross-sectional images were captured with a Nikon microscope (Nikon America Inc). The circumference of the lumen, internal elastic lamina, and external elastic lamina were measured using Image-pro Plus Software. For immunohistochemistry (IHC) staining, sections were rehydrated, blocked with 5% goat serum, permeabilized with 0.01% Triton X-100 in PBS, and incubated with primary antibodies at 4° C. overnight followed by incubation with horseradish peroxidase-conjugated secondary antibody. The sections were counterstained with hematoxylin.\nTo determine if CTPS1 plays a role in re-endothelialization during vascular remodeling in vivo, CPEC was administered systematically via osmotic pump into rats with balloon-injury or mice with wire-injury in their carotid arteries. […]"}, "[4]": {"tested_on": "wire-injured mouse carotid artery", "assay": "Mouse carotid artery wire injury model, re-endothelialization (Evans Blue)", "type": "in vivo", "settings": "10 mg/kg/day, in the presence of CPEC", "description": "Mice were anesthetized with ketamine hydrochloride (80 mg/kg IP) and xylazine (5 mg/kg IP), a 0.38-mm flexible angioplasty guidewire was advanced by 1 cm via a transverse arteriotomy of the external carotid artery, and endothelial denudation of the common carotid artery was achieved by 3 rotational passes (Werner, et al., Circ. Res., 93:e17-e24 (2003)).\nTo further establish CTPS function in re-endothelialization after vascular injury, the endothelial denudation and re-endothelialization was tested in a different model, i.e., mouse wire-injury model. […] Systematic administration of CPEC was achieved via osmotic pump (1 mg/kg/day). Re-endothelialization in mouse arteries occurred rapidly following injury (FIG. 6B). 5 days after injury, re-endothelialization was completed, consistent with the previous reports (Hagensen, et al., Cardiovasc Res., 93:223-231 (2012))."}, "[5]": {"settings": "abundant (10 μM) cytidine alone (FIG. 6D)"}}}
{"molecule": "Nc1ccn([C@@H]2O[C@H](COP(=O)(O)OP(=O)(O)OP(=O)(O)O)[C@@H](O)[C@H]2O)c(=O)n1", "note": "[CTP]", "values": [{"measurement": "SMC proliferation", "setting": "[1]; [5]", "result": "not to be able to stimulate"}, {"measurement": "EC proliferation", "setting": "Endothelial cell C166; [5]", "result": "not to be able to stimulate"}]}
{"molecule": "N[C@H](C(=O)O)[C@@H]1CC(Br)=NO1", "note": "[3-bromoacivicin]", "values": [{"measurement": "CTP synthetase inhibitor potency relative to 3-chloro analog (acivicin)", "setting": "CTP synthetase; Conti, et al, ChemMedChem (2011)", "result": "three times as potent"}]}
{"molecule": "Nc1ccn([C@@H]2C=C(CO)[C@@H](O)[C@H]2O)c(=O)n1", "note": "[CPEC, cyclopentenyl cytosine]", "values": [{"measurement": "SMC apoptosis", "setting": "[2]", "result": "did not induce SMC apoptosis"}, {"measurement": "in vivo cell apoptosis (TUNEL)", "setting": "neointima SMCs", "result": "no apoptotic cells were observed"}, {"measurement": "re-endothelialization area of the injured vessels (Evans blue)", "setting": "[3]", "result": 66, "unit": "%"}]}
{"molecule": "carbodine", "values": [{"measurement": "CTPS activity", "setting": "CTP synthetase", "result": "effectively block CTPS activity"}]}
{"molecule": "[N-]=[N+]=CC(=O)CC[C@H](N)C(=O)O", "note": "[6-diazo-5-oxonorleucine, 6-diazo-5-oxo-L-norleucin]", "values": [{"measurement": "CTPS activity", "setting": "CTP synthetase", "result": "effectively block CTPS activity"}]}
{"molecule": "O=c1oc2c(O)c(O)cc3c(=O)oc4c(O)c(O)cc1c4c23", "note": "[EA, ellagic acid]", "values": [{"measurement": "cytidine-restored EC proliferation", "setting": "Endothelial cell C166; CPEC + cytidine", "result": "blocked cytidine-restored EC proliferation in a dose-dependent manner"}, {"measurement": "re-endothelialization", "setting": "[4]", "result": "dramatically impaired"}]}
{"molecule": "Nc1ccn([C@@H]2O[C@H](CO)[C@@H](O)[C@H]2O)c(=O)n1", "note": "[cytidine]", "values": [{"measurement": "restoration of SMC proliferation blocked by high dosage of CPEC", "setting": "[1]; 500 nM CPEC + 10 μM cytidine", "result": "not SMC"}, {"measurement": "restoration of EC proliferation blocked by high dosage of CPEC", "setting": "Endothelial cell C166; 500 nM CPEC + 10 μM cytidine", "result": "restored EC"}]}
{"molecule": "CC(=O)O[C@H]1C(=O)[C@@]2(C)[C@H]([C@H](OC(=O)c3ccccc3)[C@]3(O)C[C@H](OC(=O)[C@H](O)[C@@H](NC(=O)c4ccccc4)c4ccccc4)C(C)=C1C3(C)C)[C@]1(OC(C)=O)CO[C@@H]1C[C@@H]2O", "note": "[paclitaxel, Paclitaxel]", "values": [{"measurement": "SMC proliferation", "setting": "[1]; 20 nmol/L or 500 nmol/L", "result": "suppressed"}, {"measurement": "EC proliferation", "setting": "Endothelial cell C166; 20 nmol/L or 500 nmol/L", "result": "suppressed"}, {"measurement": "restoration of inhibitory effect on EC and SMC proliferation by cytidine", "setting": "Endothelial cell C166; 500 nM paclitaxel with 10 μM cytidine", "result": "could not be restored by cytidine"}, {"measurement": "relative sensitivity of SMCs and ECs (proliferation)", "setting": "Endothelial cell C166; ECs compared with SMCs", "result": "ECs seemed to be more sensitive to paclitaxel than SMCs"}]}
